From patent US20180044306A1, “1,3,4-THIADIAZOL-2-YL-BENZAMIDE DERIVATIVES AS INHIBITORS OF THE WNT SIGNALLING PATHWAY” (Bayer Pharma Aktiengesellschaft, priority 2015, published 2018) come the findings set out here.

SMILES strings stand for the structures. Where only a bound is given, the exact number is not on record here.

In assay [1] the test system is constitutive active colorectal cancer cell (CRC) Wnt pathway (HCT116-TOP). Put plainly: Cellular reporter assay, HCT116 Super TopFlash (TOP), constitutive active Wnt pathway. The class given is cell-based. As to conditions: Homo sapiens, HCT-116; HCT116 Super TopFlash reporter cells, luciferase expression, 36 hours incubation, dilution series 50 μM to 15 nM. The procedure: In order to discover and characterize small molecules which inhibit the constitutive active colorectal cancer cell (CRC) Wnt pathway, a cellular reporter assay was employed. The corresponding assay cell was generated by transfection of the colorectal cancer cell line HCT116 (ATCC, #CCL-247) with the Super TopFlash vector (Morin, Science 275, 1997, 1787-1790; Molenaar et al., Cell 86 (3), 1996, 391-399). The HCT116 cell line is cultivated at 37° C. and 5% CO2 in DMEM/F-12 (Life Technologies, #11320-074), supplemented with 2 mM glutamine, 20 mM HEPES, 1.4 mM pyruvate, 0.15% Na-bicarbonate and 10% foetal bovine serum (GIBCO, #10270), this cancer cell line is pathophysiological relevant since it carries a deletion of position S45 in the β-catenin gene, leading to constitutive active Wnt signaling. Stable transfectants were generated by cotransfection with pcDNA3 and selection of stable transfected cells with 1 mg/ml G418.
(§1) In preparation of the assay, the two cell lines were plated 24 hours before at 10000 cells per well of a 384 micro titre plate (MTP) in 30 μL growth medium. Selective inhibitory activity for small molecules on the mutated Wnt pathway was determined after parallel incubation of both (TOP and FOP) HCT116 reporter cell lines with a compound dilution series from 50 μM to 15 nM in steps of 3.16-fold dilutions in CAFTY buffer (130 mM NaCI, 5 mM KCI, 20 mM HEPES, 1 mM MgCl2, 5 mM NaHCO3, pH 7.4) containing 2 mM Ca^2+ and 0.01% BSA. The compounds were thereby serially prediluted in 100% DMSO and thereafter in addition 50 fold into the CAFTY compound dilution buffer (described above). From this dilution 10 μL were added to the cells in 30 μL growth medium and incubated for 36 hours at 37° C. and 5% CO2. Thereafter luciferase assay buffer (1:1 mixture of luciferase substrate buffer (20 mM Tricine, 2.67 mM MgSO4, 0.1 mM EDTA, 4 mM DTT, 270 μM Coenzyme A, 470 μM Luciferin, 530 μM ATP, ph adjusted to pH 7.8 with a sufficient volume of 5M NaOH) and Triton buffer (30 mL Triton X-100, 115 mL glycerol, 308 mg Dithiothreitol, 4.45 g Na2HPO4. 2 H2O, 3.03 g TRIS HCl, ad 1I H2O, pH 7.8) was added as equal volume to the compound solution on the cells to determine luciferase expression as a measure of Wnt signaling activity in a luminometer.
On the technique in general: Reporter assays use an easily measured gene product as a stand-in for the process of interest.

In assay [2] the test system is HCT116-FOP. The assay is described as follows: Control reporter assay, HCT116 cells with FOP control vector (non-functional TCF elements). The class given is cell-based. The conditions noted are these: Homo sapiens, HCT-116, luciferase expression, 36 hours incubation, dilution series 50 μM to 15 nM, read-out: HCT116-FOP IC50 [M] mol/L]. The procedure:
In a parallel approach, HCT116 cells were cotransfected with the FOP control vector and pcDNA3. The FOP vector is identical to the TOP construct, but it contains instead of functional TCF elements a randomized, non-functional sequence. For this transfection a stable transfected cell line was generated as well.
as §1

As to `COC(=O)C1CCN(c2nnc(NC(=O)c3ccc(OC(F)(F)F)c(NC(=O)CN4CCOCC4)c3)s2)CC1` [Example 21, methyl 1-[5-({3-[(morpholin-4-ylacetyl)amino]-4-(trifluoromethoxy)benzoyl}-amino)-1,3,4-thiadiazol-2-yl]-piperidine-4-carboxylate], the IC50 was 4.1 µM in assay [1] and at least 5e-05 M in assay [2].
On the same counts, the results for `COC(=O)C1CCN(c2nnc(NC(=O)c3ccc(OC(F)(F)F)c(NC(=O)CN4CCN(C)CC4)c3)s2)CC1` [Example 22, methyl 1-(5-{[3-{[(4-methyl-piperazin-1-yl)acetyl]amino}-4-(trifluoromethoxy)benzoyl]-amino}-1,3,4-thiadiazol-2-yl)-piperidine-4-carboxylate] are 4.3 µM and at least 5e-05 M.
The matching figures for `O=C(CN1CCOCC1)Nc1cc(C(=O)Nc2nnc(C3CCCCC3)s2)ccc1OC(F)(F)F` [Example 23, N-(5-cyclohexyl-1,3,4-thiadiazol-2-yl)-3-[(morpholin-4-ylacetyl)amino]-4-(trifluoromethoxy)benzamide]: 4.59 µM and at least 5e-05 M.
The matching figures for `COC(=O)N1CCN(c2nnc(NC(=O)c3ccc(OC(F)(F)F)c(NC(=O)CN4CCOCC4)c3)s2)CC1` [Example 24, methyl 4-[5-({3-[(morpholin-4-ylacetyl)amino]-4-(trifluoromethoxy)benzoyl}-amino)-1,3,4-thiadiazol-2-yl]piperazine-1-carboxylate]: 4.6 µM and at least 5e-05 M.
On to `CC1CCN(c2nnc(NC(=O)c3ccc(OC(F)(F)F)c(NC(=O)CN4CCOCC4)c3)s2)CC1` [Example 25, N-[5-(4-methylpiperidin-1-yl)-1,3,4-thiadiazol-2-yl]-3-[(morpholin-4-ylacetyl)-amino]-4-(trifluoromethoxy)-benzamide], for which the IC50 in assay [1] is 13 µM; in assay [2], at least 5e-05 M.
On the same counts, the results for `CC(=O)N1CCN(c2nnc(NC(=O)c3ccc(OC(F)(F)F)c(NC(=O)CN4CCOCC4)c3)s2)CC1` [Example 26, N-[5-(4-acetylpiperazin-1-yl)-1,3,4-thiadiazol-2-yl]-3-[(morpholin-4-ylacetyl)amino]-4-(trifluoromethoxy)benzamide] are 15 µM and at least 5e-05 M.
On the same counts, the results for `CC1(O)CCN(c2nnc(NC(=O)c3ccc(OC(F)(F)F)c(NC(=O)CN4CCOCC4)c3)s2)CC1` [Example 27] are 20 µM and at least 5e-05 M.
The matching figures for `CN1CCN(CC(=O)Nc2cc(C(=O)Nc3nnc(N4CCC(C(C)(C)O)CC4)s3)ccc2OC(F)(F)F)CC1` [Example 28, N-{5-[4-(2-hydroxypropan-2-yl)piperidin-1-yl]-1,3,4-thiadiazol-2-yI}-3-{[(4-methylpiperazin-1-yl)-acetyl]amino}-4-(trifluoromethoxy)benzamide]: 20 µM and 2.69e-05 M.
In the case of `O=C(CN1CCOCC1)Nc1cc(C(=O)Nc2nnc(N3CCC(O)CC3)s2)ccc1OC(F)(F)F` [Example 29, N-[5-(4-hydroxypiperidin-1-yl)-1,3,4-thiadiazol-2-yl]-3-[(morpholin-4-ylacetyl)-amino]-4-(trifluoromethoxy)-benzamide], the IC50 in assay [1] was 26.8 µM; in assay [2], at least 5e-05 M.
Turning to `COC1CCN(c2nnc(NC(=O)c3ccc(OC(F)(F)F)c(NC(=O)CN4CCOCC4)c3)s2)CC1` [Example 30, N-[5-(4-methoxypiperidin-1-yl)-1,3,4-thiadiazol-2-yl]-3-((morpholin-4-ylacetyl)-amino]-4-(trifluoromethoxy)-benzamide], the IC50 was 33.5 µM in assay [1] and at least 5e-05 M in assay [2].
In the case of `O=C(CN1CCOCC1)Nc1cc(C(=O)Nc2nnc(N3CCCCC3)s2)ccc1OC(F)(F)F` [Example 31, 3-[(morpholin-4-ylacetyl)-amino]-N-[5-(piperidin-1-yl)-1,3,4-thiadiazol-2-yl]-4-(trifluoromethoxy)benzamide], the IC50 in assay [1] was 34.1 µM; in assay [2], at least 5e-05 M.
The matching figures for `O=C(CN1CCOCC1)Nc1cc(C(=O)Nc2nnc(N3CCCC3)s2)ccc1OC(F)(F)F` [Example 32, 3-[(morpholin-4-ylacetyl)-amino]-N-(5-(pyrrolidin-1-yl)-1,3,4-thiadiazol-2-yl)-4-(trifluoromethoxy)benzamide]: 50 µM and at least 5e-05 M.
On the same counts, the results for `CN(C)C(=O)N1CCN(c2nnc(NC(=O)c3ccc(OC(F)(F)F)c(NC(=O)CN4CCOCC4)c3)s2)CC1` [Example 33] are 50 µM and at least 5e-05 M.
On the same counts, the results for `CC1(C)CCN(c2nnc(NC(=O)c3ccc(OC(F)(F)F)c(NC(=O)CN4CCOCC4)c3)s2)CC1` [Example 34, N-[5-(4,4-dimethylpiperidin-1-yl)-1,3,4-thiadiazol-2-yl]-3-[(morpholin-4-ylacetyl)-amino]-4-(trifluoromethoxy)-benzamide] are 50 µM and at least 5e-05 M.
